The text below walks through data of article PMC8635778 (Angewandte Chemie (International ed. in English), 2020).

The subject of data set [1] is papillary RCC cell line (ACHN) orthotopic xenograft. Nature of the data set: fluorescence imaging of orthotopic papillary RCC xenograft. In kind it is in vivo, mice. The note with it: cancerous vs normal kidney tissue.
For data set [2] the following is noted: mouse, in vivo, iv.

With `CC1(C)C(/C=C/C=C/C=C/C=C2\N(CCCCS(=O)(=O)O)c3ccc4ccccc4c3C2(C)C)=[N+](CCCCS(=O)(=O)[O-])c2ccc3ccccc3c21` [ICG, indocyanine green], the “hyperfluorescent imaging of RCC in the kidneys (in words)” value in data set [1] is on record as “failed to hyperfluorescently light up RCC”. Further, in data set [2], the “amount found in the feces” value is reported as 85.3 % ID and the “amount in feces, times higher than ICG-PEG45” value is given as 29.8 times.
